Experimental findings from patent US9586986B2, “Substituted 7-deazapurine ribonucleosides for therapeutic uses” (Institute of Organic Chemistry and Biochemistry ASCR, v.v.i., priority 2014, dated 2017) are described below.

Some results are limits rather than exact numbers.

Holding throughout (format): cell-based
One experiment concerns CCRF-CEM. Description: Cytostatic/cytotoxic MTT assay, CCRF-CEM. Conditions: Homo sapiens, 72 h incubation, read-out: MTT, IC50 CCRF-CEM. An excerpt: (§1) Unless otherwise stated, all cells were purchased from the […] (ATCC). The CCRF-CEM line is derived from T lymphoblastic leukemia, evincing high chemosenzitivity, K562 represent cells from a […] patient sample with bcr-abl translocation, HCT116 is colorectal tumor cell line and its p53 gene knock-down counterpart (HCT116p53−/−, Horizon Discovery, UK) is a model of human cancers with p53 inactivation frequently associated with poor prognosis, A549 cell line is lung adenocarcinoma. The daunorubicin resistant subline of CCRF-CEM cells (CEM-DNR bulk) and paclitaxel resistant subline K562-TAX were selected in our laboratory by cultivation of maternal cell lines in increasing concentrations of daunorubicine or paclitaxel, respectively. The CEM-DNR cells overexpress mrp-1 and mdr-1 genes, while K562-TAX cells overexpress mdr-1 only. Both proteins belong to the family of ABC transporters and are involved in the primary and/or acquired multidrug resistance phenomenon (ref.: Gottesman, M. M.; Fojo, T.; Bates, S. E. Multidrug resistance in cancer: role of ATP-dependent transporters. Nat. Rev. Cancer. 2002, 2, 48-58. (b) Noskova, V.; Dzubak, P.; Kuzmina, G.; Ludkova, A.; Stehlik, D.; Trojanec, R.; Janostakova, A.; Korinkova, G.; Mihal, V.; Hajduch, M. In vitro chemoresistance profile and expression/function of MDR associated proteins in resistant cell lines derived from CCRF-CEM, K562, A549 and MDA MB 231 parental cells. Neoplasma 2002, 49, 418-425). Non-malignant MRC-5 and BJ cells, derived from normal human fibroblasts, were used as controls. The cells were maintained in Nunc/Corning 80 cm^2 plastic tissue culture flasks and cultured in cell culture medium (DMEM/RPMI 1640 with 5 g/L glucose, 2 mM glutamine, 100 U/mL penicillin, 100 µg/mL streptomycin, 10% fetal calf serum, and NaHCO3). Cell suspensions were prepared and diluted according to the particular cell type and the expected target cell density (25,000-30,000 cells/well based on cell growth characteristics). Cells were added by pipette (80 L) into 96-well microtiter plates. Inoculates were allowed a pre-incubation period of 24 h at 37° C. and 5% CO2 for stabilization. Four-fold dilutions, in 20-L aliquots, of the intended test concentration were added to the microtiter plate walls at time zero. All test compound concentrations were examined in duplicate. Incubation of the cells with the test compounds lasted for 72 h at 37° C., in a 5% CO2 atmosphere at 100% humidity. At the end of the incubation period, the cells were assayed using MTT. Aliquots (10 L) of the MTT stock solution (5 mg/ml) were pipetted into each well and incubated for another 1-4 h. After this incubation period the formazan produced was dissolved by addition of 100 µL/well of 10% aq SDS (pH 5.5), followed by a further incubation at 37° C. overnight. The optical density was measured at 540 nm. The IC50 value, the drug concentration inhibiting the cell growth by 50%, was calculated from appropriate dose-response curves.
(§2) In vitro cytotoxic/cytostatic activity final nucleosides 1-5 was initially evaluated against […] cell lines derived from human solid tumors including lung (A549 cells) and colon (HCT116 and HCT116p53−/−) carcinomas, as well as leukemia cell lines (CCRF-CEM, CEM-DNR, K562 and K562-TAX) and, for comparison, non-malignant BJ and MRC-5 fibroblasts. Concentrations inhibiting the cell growth by 50% (IC50) were determined using a quantitative metabolic staining with 3-(4,5-dimethylthiazol-2-yl)-2,5-diphenyltetrazolium bromide (MTT) (ref.: Denizot, F.; Lang, R. Rapid colorimetric assay for cell growth and survival: Modifications to the tetrazolium dye procedure giving improved sensitivity and reliability. J. Immunol. Meth. 1986, 89, 271-277) following a 3-day treatment.
Background: Tetrazolium dyes change colour on reduction, which living cells bring about.

The subject of another experiment is CEM-DNR-bulk. Description: Cytostatic/cytotoxic MTT assay, CEM-DNR-bulk. Conditions: Homo sapiens; daunorubicin resistant subline, 72 h; read-out: MTT, IC50 CEM-DNR-bulk.
From the text: as §1, §2
(§3) Multidrug resistance is a major therapeutic problem in cancer chemotherapy. […]

The test system of another experiment is HCT116. Description: Cytostatic/cytotoxic MTT assay, HCT116. Conditions: Homo sapiens, HCT-116; 72 h incubation; read-out: MTT, IC50 HCT116.
From the text: as §1, §2, §3

In another experiment the test system is BJ. In words: Cytostatic/cytotoxic MTT assay, BJ fibroblasts. Conditions: Homo sapiens, non-malignant fibroblasts, 72 h, read-out: MTT, IC50 BJ.
From the text: as §1, §2

The next experiment relates to HL60. In words: XTT cytotoxicity assay, HL-60. Conditions: Homo sapiens, HL-60; 72 h incubation; read-out: XTT, IC50 HL60. The procedure: (§4) HL-60, Hela S3 and HepG2 cell lines (ATCC) were grown in RPMI-1640 or DMEM medium supplemented with 10% fetal calf serum, […] of streptomycin, 200 U/mL of penicillin G and 4 mM glutamine in a humidified atmosphere containing 5% CO2 at 37° C. Sensitivity of these cell lines to the synthesized compounds was assessed with the use of XTT cell proliferation kit II (Roche Diagnostics GmbH, Mannheim, Germany) according to the manufacturer's instructions. Briefly, cells were seeded in a 96-well plate at a density of 10,000 cells per well (90 μL). After 24 h, 10 μL of the tested compounds were added to the culture media at desired concentration range and incubated for 72 h. After that 50 μL of the XTT solution was added (1 mg/mL XTT+0.383 mg/mL N-methyl dibenzopyrazine methyl sulfate). The absorbance was recorded at 495 nm following a 2 h-incubation with the dye. IC50 values were determined by non-linear regression method using GraphPad Prism version 5.00 for Windows (GraphPad Software, La Jolla, Calif., USA).
(§5) In addition, the anti-proliferative effect was tested against a human T-lymphoblastic leukemia line CCRF-CEM, promyelocytic leukemia HL-60 and cervical carcinoma HeLa S3 growing in liquid suspension. Cell viability was determined following a 3-day incubation using 2,3-bis-(2-methoxy-4-nitro-5-sulfophenyl)-2H-tetrazolium-5-carboxanilide (XTT) assay (ref.: Scudiero, D. A.; Shoemaker, R. H.; Paull, K. D.; Monks, A.; Tierney, S.; Nofziger, T. H.; Currens, M. J.; Seniff, D.; Boyd M. R. Evaluation of a Soluble Tetrazolium/Formazan Assay for Cell Growth and Drug Sensitivity in Culture Using Human and Other Tumor Cell Lines. Cancer Res. 1988, 48, 4827-4833).

Another experiment deals with HeLa S3. In words: XTT cytotoxicity assay, HeLa S3. Conditions: Homo sapiens, HeLa S3; 72 h incubation; read-out: XTT, IC50 HeLa S3. On the procedure: as §4, §5

As usually defined, the IC50 is the concentration that inhibits the measured activity by half. As to `CSc1ncnc2c1c(-c1ccccc1)cn2[C@@H]1O[C@H](CO)[C@@H](O)[C@H]1O` [Compound 2e, 4-Methylsulfanyl-5-phenyl-7-(β-D-ribofuranosyl)-7H-pyrrolo[2,3-d]pyrimidine], the 50% inhibitory concentration (IC50) was above 20 µM in the experiment with CCRF-CEM; above 20 µM with CEM-DNR-bulk; above 20 µM in the experiment on HCT116; above 100 µM in the experiment on BJ; above 20 µM with HL60; above 20 µM in the experiment with HeLa S3.
As for `CSc1ncnc2c1c(-c1cc3ccccc3o1)cn2[C@@H]1O[C@H](CO)[C@@H](O)[C@H]1O` [Compound 2f, 5-(Benzofuran-2-yl)-4-methylsulfanyl-7-(β-D-ribofuranosyl)-7H-pyrrolo[2,3-d]pyrimidine], the IC50 was above 20 µM in the experiment on CCRF-CEM; above 20 µM in the experiment with CEM-DNR-bulk; above 20 µM with HCT116; 67.2 µM in the experiment on BJ; 1.21 µM in the experiment with HL60; 1.93 µM in the experiment on HeLa S3.
Turning to `C#Cc1cn([C@@H]2O[C@H](CO)[C@@H](O)[C@H]2O)c2ncnc(SC)c12` [Compound 2g, 5-Ethynyl-4-methylsulfanyl-7-(β-D-ribofuranosyl)-7H-pyrrolo[2,3-d]pyrimidine], the IC50 with CCRF-CEM is above 20 µM; in the experiment with CEM-DNR-bulk it was 0.11 µM; with HCT116, 0.03 µM; in the experiment with BJ, 68.6 µM; in the experiment with HL60, 0.05 µM; in the experiment on HeLa S3, 0.11 µM.
As for `CSc1ncnc2c1c(I)cn2[C@@H]1O[C@H](CO)[C@@H](O)[C@H]1O` [Compound 2h, 5-Iodo-4-methylsulfanyl-7-(β-D-ribofuranosyl)-7H-pyrrolo[2,3-d]pyrimidine], the half-maximal inhibitory concentration (IC50) is above 20 µM in the experiment on CCRF-CEM; above 20 µM in the experiment on CEM-DNR-bulk; above 20 µM with HCT116; 86.1 µM in the experiment with BJ; 0.05 µM with HL60; 0.25 µM in the experiment on HeLa S3.
With `CNc1ncnc2c1c(-c1ccco1)cn2[C@@H]1O[C@H](CO)[C@@H](O)[C@H]1O` [Compound 3a, 5-(Furan-2-yl)-4-methylamino-7-(β-D-ribofuranosyl)-7H-pyrrolo[2,3-d]pyrimidine], the IC50 with CCRF-CEM was 0.18 µM; in the experiment on CEM-DNR-bulk, above 20 µM; in the experiment with HCT116, 0.23 µM; with BJ it was 5.04 µM; with HL60, 0.62 µM; in the experiment on HeLa S3, 5 µM.
With `CNc1ncnc2c1c(-c1ccoc1)cn2[C@@H]1O[C@H](CO)[C@@H](O)[C@H]1O` [Compound 3b, 5-(Furan-3-yl)-4-methylamino-7-(β-D-ribofuranosyl)-7H-pyrrolo[2,3-d]pyrimidine], the IC50 was above 20 µM with CCRF-CEM; above 20 µM in the experiment with CEM-DNR-bulk; above 20 µM with HCT116; 96.3 µM with BJ; above 15 µM with HL60; above 20 µM in the experiment on HeLa S3.
Consider `CNc1ncnc2c1c(-c1cccs1)cn2[C@@H]1O[C@H](CO)[C@@H](O)[C@H]1O` [Compound 3c, 4-Methylamino-7-(β-D-ribofuranosyl)-5-(thiophen-2-yl)-7H-pyrrolo[2,3-d]pyrimidine], for which the IC50 is above 20 µM with CCRF-CEM; above 20 µM in the experiment with CEM-DNR-bulk; above 20 µM with HCT116; above 100 µM with BJ; above 20 µM with HL60; above 20 µM with HeLa S3.
Consider `CNc1ncnc2c1c(-c1ccsc1)cn2[C@@H]1O[C@H](CO)[C@@H](O)[C@H]1O` [Compound 3d, 4-Methylamino-7-(β-D-ribofuranosyl)-5-(thiophen-3-yl)-7H-pyrrolo[2,3-d]pyrimidine], for which the IC50 is above 20 µM in the experiment with CCRF-CEM; above 20 µM in the experiment with CEM-DNR-bulk; above 20 µM in the experiment with HCT116; above 100 µM in the experiment on BJ; above 20 µM in the experiment on HL60; above 20 µM with HeLa S3.
Regarding `CNc1ncnc2c1c(-c1ccccc1)cn2[C@@H]1O[C@H](CO)[C@@H](O)[C@H]1O` [Compound 3e, 4-Methylamino-5-phenyl-7-(β-D-ribofuranosyl)-7H-pyrrolo[2,3-d]pyrimidine], the IC50 was above 20 µM in the experiment with CCRF-CEM; above 20 µM in the experiment with CEM-DNR-bulk; above 20 µM with HCT116; above 100 µM with BJ; above 20 µM with HL60; above 20 µM with HeLa S3.
With `CNc1ncnc2c1c(-c1cc3ccccc3o1)cn2[C@@H]1O[C@H](CO)[C@@H](O)[C@H]1O` [Compound 3f, 5-(Benzofuran-2-yl)-4-methylamino-7-(β-D-ribofuranosyl)-7H-pyrrolo[2,3-d]pyrimidine], the IC50 in the experiment on CCRF-CEM was above 20 µM; in the experiment with CEM-DNR-bulk, above 20 µM; in the experiment on HCT116 it was above 20 µM; in the experiment on BJ, 75.6 µM; in the experiment on HL60 it was 8.95 µM; in the experiment with HeLa S3 it was above 20 µM.
Regarding `C#Cc1cn([C@@H]2O[C@H](CO)[C@@H](O)[C@H]2O)c2ncnc(NC)c12` [Compound 3g, 5-Ethynyl-4-methylamino-7-(β-D-ribofuranosyl)-7H-pyrrolo[2,3-d]pyrimidine], the IC50 with CCRF-CEM is above 20 µM; with CEM-DNR-bulk, 18.5 µM; with HCT116 it was above 20 µM; in the experiment with BJ, 86 µM; in the experiment with HL60 it was 9.06 µM; in the experiment on HeLa S3, above 20 µM.
`CN(C)c1ncnc2c1c(-c1ccco1)cn2[C@@H]1O[C@H](CO)[C@@H](O)[C@H]1O` [Compound 4a, 4-Dimethylamino-5-(furan-2-yl)-7-(β-D-ribofuranosyl)-7H-pyrrolo[2,3-d]pyrimidine]: the IC50 in the experiment with CCRF-CEM was 2.91 µM; in the experiment on CEM-DNR-bulk, 3.14 µM; with HCT116, 0.25 µM; in the experiment with BJ, above 100 µM; in the experiment with HL60, 0.22 µM; in the experiment with HeLa S3, 1.19 µM.
